Experimental data from US20260176253A1 (priority 2021, published 2026).

How the values were obtained:
5HT2A sensor [1] = assay type: cell-based
5HT2A sensor [2] = assay type: cell-based; remark: listed apart in the source
mice = assay: Head-twitch response (HTR) in mice; assay type: in vivo
Experimental: Head twitch response (HTR) experiments. C57BL/6J Mice (9-10 weeks old) are housed following an IACUC approved protocol. The mice are habituated in the test cage for at least 30 min, injected intraperitoneally with compound (injection volume 5 ml/kg), returned to the empty test cage, and filmed for 20 minutes. Each video is scored for the number of head-twitches by a trained observer blinded to treatment condition.

rat cortical neurons = assay: Neurite outgrowth in primary neuronal cultures assay; assay type: cell-based; set-up: key: A: Statistically significant mean increase as a percent of DMSO control at 10 μM or less; B: No statistically significant mean increase as a percent of DMSO control at 10 μM or less; conditions: 72h, vs DMSO control, 10 μM or less
Excerpt: Neurite Outgrowth Assay. Neurite Outgrowth in Primary Neuronal Cultures Assay. Changes in the pattern of neurite outgrowth have been implicated in psychiatric and neurodegenerative disorders as well as traumatic injuries. The discovery of new compounds that can positively affect neuritogenesis are important for developing new therapeutics for neurological diseases. Measurement of neurite outgrowth of rat cortical neurons using an automated image-based assay was used to determine the neuroplastic effects of the compounds of the present disclosure. The neurite outgrowth assay was performed at Neurofit SAS (France) as described below.
Pregnant Wistar rats (Janvier; France) were used for the study. They were delivered 6 days before their use. Upon arrival at Neurofit animal facility, they were housed one per cage and maintained in a room with controlled temperature (21-22° C.) and a reversed light-dark cycle (12 h/12h; lights on: 17:30-05:30; lights off: 05:30-17:30) with food and water available ad libitum.
Female Wistar rats of 17 days gestation were killed by cervical dislocation and the fetuses were removed from the uterus. Their brains were placed in ice-cold medium of Leibovitz (L15, Gibco, Fisher bioblock, France). Cortices were dissected and meninges were carefully removed. The cortical neurons were dissociated by trypsinization for 30 min at 37° C. (trypsin-EDTA, Gibco) in presence of 0.1 mg/ml DNAse I (Roche, France). The reaction was stopped by addition of Dulbecco's Modified Eagle Medium (DMEM; Gibco) with 10% of fetal bovine serum (FBS; Gibco). The suspension was triturated with a 10-ml pipette and using a needle syringe 21G and centrifuged at 350×g for 10 min at room temperature. The pellet of dissociated cells was resuspended in a medium consisting of Neurobasal (Gibco) supplemented with 2% B27 supplement (Gibco), 0.5 mM L-Glutamine (Gibco), an antibiotic-antimicotic mixture. Viable cells were counted in a Neubauer cytometer using the trypan blue exclusion test (Sigma). Cells were seeded at a density of 10000 cells per well in 96-well plate (Costar) precoated with poly-L-lysine. Test compound at different concentrations were added to the cultures. Donepezil (positive control) was tested at 250 nM.
After 72h (3 days) of plating, cultures were fixed with paraformaldehyde in PBS (4%, Sigma) for 30 min at 4° C. Then, cells were successively permeabilized with 0.1% Triton X100 for 30 min, saturated with PBS containing 3% of BSA and were incubated 1 h with anti-beta III tubulin antibody (Sigma) at 1/10 000 in PBS containing 0.5% of BSA. Cells were washed three times with PBS containing 0.5% of BSA, and they were incubated 1 h with goat anti-mouse antibody coupled with AF488 (Invitrogen A11001) diluted at 1/1000 in PBS containing 0.5% of BSA. Finally, nuclei were staining with DAPI 1 mg/ml at 1/1000 in PBS containing 0.5% of BSA. After rinsing with PBS, the plate was filmed and neurite networks were examined and analyzed using High-Content Screening (CellInsight, Thermo Scientific). The average number of neurites per neuron and the average total length of neurites per neuron were the main parameters analyzed. Analysis of data was performed using analysis of variance (ANOVA). The Fisher's Protected Least Significant Difference test was used for multiple comparisons. A p value ≤0.05 was considered significant. The software used is StatView 5.0 from SAS Institut.

5-HT2A [3] = target: T1, 5-HT2A (Homo sapiens, UniProt P28223); assay: Serotonin 5-HT2A in vitro cellular IPOne agonism assay (HTRF); assay type: cell-based; set-up: host or cells: CHO-K1; conditions: CHO-K1 cells, 60 min
Experimental: (§1) Serotonin 5-HT2AIn Vitro Cellular IPOne Agonism Assay. The 5-HT2AIPOne HTRF assay was performed at Epics Therapeutics S. A. (Belgium, FAST-0505I) using conventional methods. Briefly, CHO—K1 cells expressing human recombinant 5-HT2A receptor grown to mid-log phase in culture media without antibiotics were detached with PBS-EDTA, centrifuged, and resuspended in medium without antibiotics buffer. 20,000 cells were distributed in a 96 well plate and incubated overnight at 37° C. with 5% Co2.
For agonist testing, the medium was removed and 20 μl of assay buffer plus 20 μl of test compound or reference agonist were added in each well. The plate was incubated for 60 min. at 37° C. with 5% CO2.
(§2) After addition of the lysis buffer containing IP1-d2 and anti-IP1 cryptate detection reagents, plates were incubated 1-hour at room temperature, and fluorescence ratios were measured according to the manufacturer specification, with the HTRF kit.

5-HT2A [4] = target: T1, 5-HT2A; assay: Serotonin 5-HT2A in vitro cellular IPOne antagonism assay (HTRF); assay type: cell-based; set-up: host or cells: CHO-K1; conditions: CHO-K1 cells, reference agonist a-Me-5HT
Experimental: as §1, with “Antagonism” for “Agonism”, “FAST-0505I) in antagonism mode” for “FAST-0505I)”
For antagonist testing, a reference agonist a-Me-5HT was added and fluorescence signal monitored for several minutes, followed by addition of 20 μl of assay buffer plus 20 μl of test compound or reference antagonist ketanserin, in each well. The plate was incubated for 60 min. at 37° C. with 5% CO2.
as §2

5-HT2A [5] = target: T1, 5-HT2A; assay: Serotonin 5-HT2A in vitro radioligand binding competition assay ([3H]-DOI); set-up: purchased Epics Therapeutics S. A. (Belgium), contract assay FAST-0505B; host or cells: membrane extracts; conditions: [3H]-DOI competition, membrane extracts; read-out: 5HT2A R[…] ACTIVITY
Experimental: Serotonin 5-HT2AIn Vitro Radioligand Binding Competition Assay. The 5-HT2A radioligand binding competition assay was performed at Epics Therapeutics S. A. (Belgium, FAST-0505B) using conventional methods. Briefly, competition binding is performed in duplicate in the wells of a 96 well plate (Master Block, Greiner, 786201) containing binding buffer (optimized for each receptor), membrane extracts (amount of protein/well optimized for each receptor), radiotracer [3H]-DOI (final concentration optimized for each receptor) and test compound. Nonspecific binding was determined by co-incubation with 200-fold excess of cold competitor. The samples were incubated in a final volume of 0.1 ml at a temperature and for a duration optimized for each receptor and then filtered over filter plates. Filters were washed six times with 0.5 ml of ice-cold washing buffer (optimized for each receptor) and 50 µl of Microscint 20 (Packard) were added in each well. The plates were incubated 15 min on an orbital shaker and then counted with a TopCount™ for 1 min/well.

T1 sequence (P28223 whole entry): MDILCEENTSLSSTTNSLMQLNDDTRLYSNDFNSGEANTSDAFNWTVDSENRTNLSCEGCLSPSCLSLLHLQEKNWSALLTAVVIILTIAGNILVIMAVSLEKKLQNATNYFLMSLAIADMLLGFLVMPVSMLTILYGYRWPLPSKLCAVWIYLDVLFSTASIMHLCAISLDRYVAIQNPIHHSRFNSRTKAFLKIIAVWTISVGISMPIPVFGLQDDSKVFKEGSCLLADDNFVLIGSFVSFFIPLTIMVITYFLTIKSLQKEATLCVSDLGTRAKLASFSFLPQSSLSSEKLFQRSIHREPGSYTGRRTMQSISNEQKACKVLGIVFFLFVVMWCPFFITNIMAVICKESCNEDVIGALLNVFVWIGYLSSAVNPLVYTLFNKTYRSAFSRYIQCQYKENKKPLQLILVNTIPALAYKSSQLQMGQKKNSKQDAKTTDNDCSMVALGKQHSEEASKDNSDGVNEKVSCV

SMILES | activation of the 5HT2A sensor assay in agonist mode (5HT2A sensor [1]) | competition with 5-HT in the 5HT2A sensor assay in antagonist mode (5HT2A sensor [2]) | head-twitch response (HTR) (mice) | INCREASE IN NEURITE BRANCHING (rat cortical neurons) | INCREASE IN NEURITE LENGTH (rat cortical neurons) | INCREASE IN NEURITE NUMBER (rat cortical neurons) | EC50 (5-HT2A [3]) | IC50 (5-HT2A [4]) | IC50 (5-HT2A [5])
O=C(c1ccc(F)cc1)C1CCN(CCn2c(=O)[nH]c3ccccc3c2=O)CC1 [Ketanserin] | do not activate the 5HT2A sensor assay in agonist mode | can compete with 5HT binding to 5HT2A |  |  |  |  |  |  | 
CCN(CC)CCc1c[nH]c2cc(F)ccc12 [Compound 6-F-DET] | do not activate the 5HT2A sensor assay in agonist mode | can compete with 5HT binding to 5HT2A |  |  |  |  |  |  | 
CCN(CC)C(=O)[C@@H]1C=C2c3cccc4[nH]cc(c34)C[C@H]2N(C)C1 [LSD] | activate the 5HT2A sensor assay in agonist mode |  |  |  |  |  |  |  | 
COc1ccc2[nH]cc(CCN(C)C)c2c1 [Compound 5-MeO-DMT] | activate the 5HT2A sensor assay in agonist mode |  | robust, dose-dependent head-twitch response |  |  |  |  |  | 
CN[C@H](C)Cc1ccc2c(c1)OCO2 [L-MDMA] | do not activate the 5HT2A sensor assay in agonist mode |  |  |  |  |  |  |  | 
COc1cccc2[nH]c3c(c12)C[C@H]1CCCN1CC3 [Compound 26, (R)-11-methoxy-1,2,3,5,6,7,12,12a-octahydropyrrolo[1′,2′:1,7]azepino[4,5-b]indole] |  |  |  | A | A | A | 0.01 to 0.1 µM | < 0.01 µM | 0.101 to 1 µM
COc1ccc2c(CCN(C)C)c[nH]c2c1 [Compound 6-MeO-DMT] | do not activate the 5HT2A sensor assay in agonist mode | compete off 5-HT | does not produce a HTR |  |  |  |  |  | 
CN(C)CCc1c[nH]c2ccccc12 [DMT, N,N-dimethyltryptamine] | activate the 5HT2A sensor assay in agonist mode |  |  |  |  |  |  |  | 
COc1ccc2c3c([nH]c2c1)C[C@H]1CCCN1CC3 [Compound 18, (R)-9-methoxy-1,2,3,5,6,11,12,12a-octahydropyrrolo[1′,2′:1,2]azepino[4,5-b]indole] |  |  |  | A | A | A | > 10 µM | 0.101 to 1 µM | > 10 µM
Cn1c2c(c3ccccc31)CCN1CCCC1C2 (stereo not drawn) [Compound 3, 11-methyl-1,2,3,5,6,11,12,12a-octahydropyrrolo[1′,2′:1,2]azepino[4,5-b]indole] |  |  |  | B | A | B | 1 to 10 µM | 0.101 to 1 µM | 0.101 to 1 µM
CCN(CC)C(=O)[C@@H]1C=C2c3cccc4[nH]c(Br)c(c34)C[C@H]2N(C)C1 [BOL148] | do not activate the 5HT2A sensor assay in agonist mode | can compete with 5HT binding to 5HT2A |  |  |  |  |  |  | 
FC(F)(F)c1cccc2[nH]c3c(c12)CC1CCCN1CC3 (stereo not drawn) [Compound 28, 11-(trifluoromethyl)-1,2,3,5,6,7,12,12a-octahydropyrrolo[1′,2′:1,7]azepino[4,5-b]indole] |  |  |  | A | A | A | 1 to 10 µM | 0.01 to 0.1 µM | 0.101 to 1 µM
c1ccc2c3c([nH]c2c1)CC1CCCN1CC3 (stereo not drawn) [Compound 4, 1,2,3,5,6,11,12,12a-octahydropyrrolo[1′,2′;1,2]azepino[4,5-b]indole] |  |  |  | A | A | A | 0.101 to 1 µM | 0.101 to 1 µM | 0.101 to 1 µM
COc1cc(CC(C)N)c(OC)cc1I (stereo not drawn) [DOI] | activate the 5HT2A sensor assay in agonist mode |  |  |  |  |  |  |  | 
c1ccc2c3c([nH]c2c1)C[C@@H]1CCCN1CC3 [Compound 19, (S)-1,2,3,5,6,11,12,12a-octahydropyrrolo[1′,2′:1,2]azepino[4,5-b]indole] |  |  |  | A | A | A | 0.101 to 1 µM | 0.101 to 1 µM | 0.101 to 1 µM
